This assay addresses T1, Human 5-lipoxygenase (Homo sapiens, UniProt P09917).
T1 construct: purchased Cayman 60402; host or cells: insect cells
T1 sequence (P09917 1-674): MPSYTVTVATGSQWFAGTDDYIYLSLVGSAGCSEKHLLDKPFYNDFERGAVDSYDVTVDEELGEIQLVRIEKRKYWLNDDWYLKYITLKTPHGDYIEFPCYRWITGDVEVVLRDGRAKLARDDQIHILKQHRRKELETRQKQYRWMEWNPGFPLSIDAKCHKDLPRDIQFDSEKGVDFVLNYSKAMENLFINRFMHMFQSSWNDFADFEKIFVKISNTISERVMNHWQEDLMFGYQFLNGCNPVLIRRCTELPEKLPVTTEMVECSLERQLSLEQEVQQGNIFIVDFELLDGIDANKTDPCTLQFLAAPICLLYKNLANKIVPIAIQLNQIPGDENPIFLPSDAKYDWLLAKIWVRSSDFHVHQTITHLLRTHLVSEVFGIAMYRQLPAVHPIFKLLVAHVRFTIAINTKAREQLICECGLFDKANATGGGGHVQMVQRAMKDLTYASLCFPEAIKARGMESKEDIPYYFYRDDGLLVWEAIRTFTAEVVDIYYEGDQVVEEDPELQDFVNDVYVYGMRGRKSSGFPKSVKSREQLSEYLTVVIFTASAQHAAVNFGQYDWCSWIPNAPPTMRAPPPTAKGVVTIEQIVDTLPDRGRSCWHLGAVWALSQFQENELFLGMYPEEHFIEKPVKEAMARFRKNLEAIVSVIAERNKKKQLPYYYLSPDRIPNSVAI
In words: Activity of compounds against 5-LO enzyme (LTB4 measurement and/or fluorescence method). The conditions noted are these: for inhibition at 10 µM: 5-LO, single concentration of 10 uM in duplicate; for IC50: 6 or 11 point dose response in duplicate. The assay is classed as biochemical. In short, it runs like this: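 Two read-outs: LTB4 measured by EIA and/or LC/MS/MS with LTB4-d4 standard after 15 min RT compound preincubation with insect-cell 5-LO and a 5 min 37 °C reaction on 3 uM arachidonic acid (0.1 mM ATP, pH 7.4). The room-temperature fluorescence format used 20 uM H2DCFDA, 100 uM ATP, 3 uM arachidonic acid, 5 min; IC50 from 6/11-point curves.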

As usually defined, the inhibition is the drop in the measured response relative to a control, in per cent. In general, IC50 refers to the concentration at which inhibition is half-maximal. A high value points to a need for much substance.

The compound `CCc1nc2ccc(Cl)cn2c1C(=O)NCc1ccc(-c2cccc(C#N)c2)cc1` [compound 99, 6-Chloro-N-((3′-cyanobiphenyl-4-yl)methyl)-2-ethylimidazo[1,2-a]pyridine-3-carboxamide] came in with an inhibition at 10 µM below 40%.
For the compound `CCc1nc2ccc(Cl)cn2c1C(=O)NCc1ccc(-c2ccc(Cl)cc2C(F)(F)F)cc1` [compound 100, 6-Chloro-N-((4′-chloro-2′-(trifluoromethyl)biphenyl-4-yl)methyl)-2-ethylimidazo[1,2-a]pyridine-3-carboxamide], the inhibition at 10 µM was above 69% and the IC50 lay within 1 to 20 µM.
In turn, `CCc1nc2cc(Cl)ccn2c1C(=O)NCc1ccc(-c2cccc(C#N)c2)cc1` [compound 101, 7-Chloro-N-((3′-cyanobiphenyl-4-yl)methyl)-2-ethylimidazo[1,2-a]pyridine-3-carboxamide] returned an inhibition at 10 µM of 40 to 69%.
The same measure, in the same setting: for `CCc1nc2cc(Cl)ccn2c1C(=O)NCc1ccc(-c2ccccc2C(F)(F)F)cc1` [compound 102, 7-Chloro-2-ethyl-N-((2′-(trifluoromethyl)biphenyl-4-yl)methyl)imidazo[1,2-a]pyridine-3-carboxamide] the value was 40 to 69%.
For the compound `CCc1nc2cc(Cl)ccn2c1C(=O)NCc1ccc(-c2ccc(Cl)cc2C(F)(F)F)cc1` [compound 103, 7-Chloro-N-((4′-chloro-2′-(trifluoromethyl)biphenyl-4-yl)methyl)-2-ethylimidazo[1,2-a]pyridine-3-carboxamide], the inhibition at 10 µM is above 69% and the IC50 was in the range of 1 to 20 µM.
For `CCc1nc2ccc(Cl)cn2c1C(=O)NCc1ccc(-c2ccc(C#N)cc2C)cc1` [compound 104, 6-Chloro-N-((4′-cyano-2′-methylbiphenyl-4-yl)methyl)-2-ethylimidazo[1,2-a]pyridine-3-carboxamide], the inhibition at 10 µM is 40 to 69%.
The same measure, in the same setting: for `CCc1nc2ccc(Cl)cn2c1C(=O)NCc1ccc(N2CCN(C)CC2)cc1` [compound 105, 6-Chloro-2-ethyl-N-(4-(4-methylpiperazin-1-yl)benzyl)imidazo[1,2-a]pyridine-3-carboxamide] the value was below 40%.
Same read-out and setting: for `CCc1nc2cc(Cl)ccn2c1C(=O)NCc1ccc(-c2ccccc2C#N)cc1` [compound 106, 7-Chloro-N-((2′-cyanobiphenyl-4-yl)methyl)-2-ethylimidazo[1,2-a]pyridine-3-carboxamide] the value was 40 to 69%; for `CCc1nc2cc(Cl)ccn2c1C(=O)NCc1ccc(OC(F)(F)F)cc1` [compound 107, 7-Chloro-2-ethyl-N-(4-(trifluoromethoxy)benzyl)imidazo[1,2-a]pyridine-3-carboxamide], 40 to 69%.
In the case of `CCc1nc2cc(Cl)ccn2c1C(=O)NCc1ccc(N2CCN(C)CC2)cc1` [compound 108, 7-Chloro-2-ethyl-N-(4-(4-methylpiperazin-1-yl)benzyl)imidazo[1,2-a]pyridine-3-carboxamide], the inhibition at 10 µM is below 40%.
`CCc1nc2cc(Cl)ccn2c1C(=O)NCc1ccc(-c2ccc(C#N)cc2C)cc1` [compound 109, 7-Chloro-N-((4′-cyano-2′-methylbiphenyl-4-yl)methyl)-2-ethylimidazo[1,2-a]pyridine-3-carboxamide] yielded an inhibition at 10 µM of 40 to 69%.
In turn, `CCCCCNc1ccc(CNC(=O)c2c(CC)nc3cc(Cl)ccn23)cc1` [compound 110, 7-Chloro-2-ethyl-N-(4-(pentylamino)benzyl)imidazo[1,2-a]pyridine-3-carboxamide] yielded an inhibition at 10 µM above 69% and an IC50 above 20 µM.
On to `CCc1nc2cc(Cl)ccn2c1C(=O)NCc1ccc(-c2ccc(C(F)(F)F)cc2)cc1` [compound 111, 7-Chloro-2-ethyl-N-((4′-(trifluoromethyl)biphenyl-4-yl)methyl)imidazo[1,2-a]pyridine-3-carboxamide], for which the inhibition at 10 µM is below 40%.
Still for that read-out and setting: then `CCc1nc2cc(Cl)ccn2c1C(=O)NCc1ccc(-c2ccc(OC(F)(F)F)cc2)cc1` [compound 112, 7-Chloro-2-ethyl-N-((4′-(trifluoromethoxy)biphenyl-4-yl)methyl)imidazo[1,2-a]pyridine-3-carboxamide], with 40 to 69%; and `CCc1nc2cc(Cl)ccn2c1C(=O)NCc1ccc(-c2ccc(OC)cc2)cc1` [compound 113, 7-Chloro-2-ethyl-N-((4′-methoxybiphenyl-4-yl)methyl)imidazo[1,2-a]pyridine-3-carboxamide], with 40 to 69%.
The same measure, in the same setting: then `CCc1nc2cc(Cl)ccn2c1C(=O)NCc1ccc(-c2ccc(C(C)(C)C)cc2)cc1` [compound 114, N-((4′-tert-Butylbiphenyl-4-yl)methyl)-7-chloro-2-ethylimidazo[1,2-a]pyridine-3-carboxamide], with 40 to 69%; and `CCc1nc2cc(Cl)ccn2c1NC(=O)c1ccc(-c2ccccc2)cc1` [compound 115, N-(7-Chloro-2-ethylimidazo[1,2-a]pyridin-3-yl)biphenyl-4-carboxamide], with 40 to 69%.
Regarding `CCc1nc2cc(Cl)ccn2c1NC(=O)Cc1ccc(-c2ccccc2)cc1` [compound 116, 2-(Biphenyl-4-yl)-N-(7-chloro-2-ethylimidazo[1,2-a]pyridin-3-yl)acetamide], the inhibition at 10 µM was 40 to 69%.
Same read-out and setting: for `CCc1nc2cc(Cl)ccn2c1C(=O)NCc1ccc(-n2cccc2)cc1` [compound 117, N-(4-(1H-Pyrrol-1-yl)benzyl)-7-chloro-2-ethylimidazo[1,2-a]pyridine-3-carboxamide] the value was below 40%; for `CCc1nc2cc(OC)ccn2c1C(=O)NCc1ccc(OC(F)(F)F)cc1` [compound 118, 2-Ethyl-7-methoxy-N-(4-(trifluoromethoxy)benzyl)imidazo[1,2-a]pyridine-3-carboxamide], below 40%.
As to `CCc1nc2cc(Cl)ccn2c1C(=O)NCc1ccc(-c2ccc(OC)cn2)cc1` [compound 119, 7-Chloro-2-ethyl-N-(4-(5-methoxypyridin-2-yl)benzyl)imidazo[1,2-a]pyridine-3-carboxamide], the inhibition at 10 µM is 40 to 69%.
Same read-out and setting: for `CCc1nc2ccc(F)cn2c1C(=O)NCc1ccc(OC(F)(F)F)cc1` [compound 120, 2-Ethyl-6-fluoro-N-(4-(trifluoromethoxy)benzyl)imidazo[1,2-a]pyridine-3-carboxamide] the value was 40 to 69%; for `CCc1nc2ccc(C(F)(F)F)cn2c1C(=O)NCc1ccc(OC(F)(F)F)cc1` [compound 121, 2-Ethyl-N-(4-(trifluoromethoxy)benzyl)-6-(trifluoromethyl)imidazo[1,2-a]pyridine-3-carboxamide], 40 to 69%; for `CCc1nc2ccc(Cl)cn2c1C(=O)NCc1ccc(N2CCC(Oc3ccc(OC(F)(F)F)cc3)CC2)cc1` [compound 122, 6-Chloro-2-ethyl-N-(4-(4-(4-(trifluoromethoxy)phenoxy)piperidin-1-yl)benzyl)imidazo[1,2-a]pyridine-3-carboxamide], 40 to 69%.
Take `CCc1nc2cc(Cl)ccn2c1C(=O)NCc1ccc(N2CCC(Oc3ccc(OC(F)(F)F)cc3)CC2)cc1` [compound 123, 7-Chloro-2-ethyl-N-(4-(4-(4-(trifluoromethoxy)phenoxy)piperidin-1-yl)benzyl)imidazo[1,2-a]pyridine-3-carboxamide]: the inhibition at 10 µM is above 69% and the IC50 was above 20 µM.

For the origin of these results see patent US9029389B2 (Institut Pasteur Korea, priority 2011, dated 2015).
